Measured values as given in paper PMC10097024, “Cytotoxic and Antibacterial Prenylated Acylphloroglucinols from Hypericum olympicum L” (Plants, 2023).
Converted amounts (≈) assume the structure as drawn. “And” between values parts separate entries of the source, which are not always exact repeats. Equal entries are not always repeated. Where two headings read alike, the source gives them in different places.

Assays:
[1] = system: human tumor (MDA-MB-231, EJ, K-562, HL-60 and HL-60/DOX) cell lines; test: MTT cytotoxicity test, tumor cell line panel; type: cell-based; details: Homo sapiens; average IC50 of all chemo-sensitive tested tumor cell lines; read-out: x
Description: (§1) The group of human cell lines used in this study were represented by the tumor cell lines MDA-MB (breast carcinoma), EJ (urinary bladder carcinoma), K-562 (chronic myeloid leukemia), HL-60 (acute pre-myeloid leukemia), HL-60/DOX (multi-drug resistant HL-60 cell line, with over expression of MRP-1) and the non-tumorigenic cell lines HEK-293 (embryonic kidney cells) and EA.hy926 (vascular endothelial cells). EJ, HL60 and EA.hy926 were purchased from American Type Culture Collection (ATCC) (Manassas, Virginia). The other cell lines were purchased from the German Collection of Microorganisms and Cell Cultures (DSMZ GmbH, Braunschweig, Germany). HL-60/DOX cell lines were generated by periodically treating HL-60 cells with anthracyclins. The conditions in which the cell culture flasks were maintained were as follows: 37 °C in an incubator “BB 16-Function Line” Heraeus (Kendro, Hanau, Germany) with 5% CO2 humidified atmosphere. The growth medium was 90% RPMI-1640, supplemented with 10% FBS and 2 mM L-glutamine. MDA-MB-231, EJ, HEK-293 and EA.hy926 cells were maintained as adherent monolayer cultures while all the other (leukemic) cell lines were grown as suspension type cultures. Cells were maintained in log phase: the adherent cell lines were subjected to trypsinization 1–2 times a week and the leukemic cell lines were passaged 2–3 times a week by removing of part of the cellular suspension and substituting it with fresh medium.
(§2) The evaluation of cytotoxic activity was conducted by MTT test as described previously. The median inhibitory concentration (IC50) values which represent the half-maximal concentration values were calculated from sigmoidal concentration–response curves, using non-linear regression analysis (Curve fit, GraphPad Prizm 5.0 software, GraphPad Software Inc., San Diego, CA, USA). The selectivity index was calculated as the ratio of the IC50 of a non-cancerous line (HEK-293 or EA.hy926) and the average IC50 of all chemosensitive tested tumor cell lines (x). Therefore, SI=IC50HEK-293/IC50x . The resistance index (RI) was calculated as the ratio of IC50 of the multi-drug resistant HL-60/DOX cell line and the IC50 of its parent cell line: RI=IC50HL-60/DOX/IC50HL-60 .

MDA-MB-231 [2] = test: Antiproliferative test (NCI methodology); type: cell-based, human; details: for GI50: Homo sapiens, MDA-MB-231, MTT readout; for TGI: MDA-MB-231, total growth inhibition
Description: as §1
(§3) The test was performed according the methodology of National Cancer Institute (NCI), USA [116]. Briefly, cells were seeded into 96-well plates in the same way as for an MTT test and after 24 h, the absorption of one plate of each cell line was measured as in the MTT assay described above, to represent a measurement of the cell population at the time of drug-addition (Tz). The rest of the plates were treated with the tested compounds and the experiment for them continued as the MTT-method. Using the absorbance measurements [(Tz, untreated control growth (C) and test growth in the present of the compounds (Ti)], the percentage growth is calculated at each of the tested concentrations of the compounds. Percentage growth inhibition (GI) is calculated as GI%=Ti−Tz/C−Tz×100 for concentrations for which Ti ≥ Tz. For concentrations in which Ti < Tz it is calculated as GI%=Ti−Tz/Tz×100 . Two dose parameters are calculated for each experimental agent. Growth inhibition of 50% (GI50) is calculated from Ti−Tz/C−Tz×100=50 . This is the drug concentration resulting in a 50% reduction in the net protein increase (as measured by MTT-test) in control cells during the drug incubation. The drug concentration resulting in total growth inhibition (TGI) is calculated from Ti = Tz.

K-562 [3] = test: Antiproliferative test (NCI methodology); type: cell-based, human; details: for GI50: Homo sapiens, K562, K-562, MTT readout; for TGI: K-562, total growth inhibition
Description: as §1, §3

HL-60 [4] = test: Antiproliferative test (NCI methodology); type: cell-based, human; details: for TGI: HL-60, total growth inhibition; for GI50: Homo sapiens, HL-60, MTT readout
Description: as §1, §3

MDA-MB-231 [5] = test: MTT cytotoxicity test; type: cell-based, human; details: Homo sapiens, MDA-MB-231, 72 h exposure
Description: as §1, §2

K-562 [6] = test: MTT cytotoxicity test; type: cell-based, human; details: Homo sapiens, K562, K-562, 72 h exposure
Description: as §1, §2

HL-60 [7] = test: MTT cytotoxicity test; type: cell-based, human; details: Homo sapiens, HL-60, 72 h exposure
Description: as §1, §2

HL-60/DOX = test: MTT cytotoxicity test; type: cell-based, human; details: Homo sapiens, 72 h exposure
Description: as §1, §2

EJ = test: MTT cytotoxicity test; type: cell-based, human; details: Homo sapiens, 72 h exposure
Description: as §1, §2

EA.hy926 = test: MTT cytotoxicity test; type: cell-based, human; details: Homo sapiens, EA.hy 926, EA.hy926, 72 h exposure
Description: as §1, §2

HEK-293 = test: MTT cytotoxicity test; type: cell-based, human; details: Homo sapiens, HEK293, HEK-293, 72 h exposure
Description: as §1, §2

procaspase 9 = test: Western blot, procaspase 9; type: cell-based, human; details: MDA-MB-231 and HL60/DOX
Method: (§4) Next, the samples were lysed on ice with a buffer containing 100 mM Tris–HCl at pH 8.0, 4% SDS, 20% glycerol, 1% Na3VO4, 200 mM dithiothreitol (DTT) (Sigma-Aldrich, St. Louis, MO, USA) and protease inhibitor (Roche, Basel, Switzerland). Then the cell lysate was boiled for 15 min and centrifuged at 13,000 rpm for 10 min at 4 °C. Before DTT addition, aliquot samples of 10 μL were taken from the lysates. Their protein concentrations were determined using a BCA protein assay kit (ThermoFisher Scientific, Waltham, MA, USA) after dilution 5× with H2O. Subsequently, the samples were subjected to denaturing SDS-PAGE electrophoresis and then transferred to PVDF membrane (Santa Cruz Biotechnology, USA). After this, the blots were fixed with blocking solution (5% w/v nonfat dried milk powder, dissolved in TBS) and incubated with specific primary antibodies: mouse procaspase-9 (sc-17784), mouse Bcl-2 (C-2, sc-7382) and mouse β-actin (sc-8432). The incubation was either overnight at 4 °C or for 150 min at room temperature. After washing, the membranes were incubated for 45 min with horseradish peroxidase conjugated secondary goat anti-mouse antibody (sc-2005) or mouse IgG kappa antibody (sc-516102) (Santa Cruz Biotechnology, Santa Cruz, CA, USA). […] This densitometry analysis of the blots was calculated by Quantity One software version 4.6.9 (Bio-Rad Laboratories, Hercules, CA, USA). […]

MRSA = details: cited from earlier work
MDA-MB-231 cells = details: cited from earlier work
S. aureus = details: cited from earlier work
[8] = system: Corynebacterium diphtherie; details: cited from earlier work
[9] = system: prostate cancer cell PC-3; details: cited from earlier work
K-562 cells = details: K-562; cited from earlier work
leukemia U937 cells = details: lowest IC50 value; cited from earlier work
Sarcina lutea = details: cited from earlier work
E. faecalis = details: cited from earlier work
[10] = system: Gram-negative bacteria, such as E. coli and fungi; details: cited from earlier work
[11] = system: NorA multidrug efflux pumps; parameters: method as in PMID 24119569; details: S. aureus; cited from earlier work
Bcl-2 = test: Western blot, Bcl-2; type: cell-based, human; details: MDA-MB-231 and HL60/DOX
Method: as §4

## CC(C)=CCC/C(C)=C/COc1cc(O)cc(O)c1C(=O)C(C)C [Compound 1, (E)-1-[2-{(3,7-dimethylocta-2,6-dien-1-yl)oxy}-4,6-dihydroxyphenyl]-2-methylpropan-1-one]
[1]
  IC50: 14.5 µM
MDA-MB-231 [2]
  GI50: 10.4 µM
  TGI: 18.56 µM
K-562 [3]
  GI50: 5.2 µM
  TGI: 11.90 µM
HL-60 [4]
  TGI: 9.39 µM
  GI50: 3.79 µM
MDA-MB-231 [5]
  IC50: 24.9 ± 3.2 µM
K-562 [6]
  IC50: 9.05 ± 0.8 µM
HL-60 [7]
  IC50: 16.6 ± 3.3 µM
HL-60/DOX
  IC50: 5.59 ± 0.4 µM
EJ
  IC50: 7.01 ± 1.3 µM
EA.hy926
  IC50: 6.73 ± 0.9 µM
HEK-293
  IC50: 14.7 ± 2.2 µM
Procaspase 9
  degradation of the precursor caspase 9 (in words): not any observed decrease
MRSA; growth of MRSA
  MIC50: 1.14 µg/mL (≈ 3.43 µM)

## CC(C)=CCC[C@]1(C)[C@@H](CC=C(C)C)C[C@@]2(CC=C(C)C)C(=O)[C@]1(C(=O)C(C)C)C(=O)C(CC=C(C)C)=C2O [hyperforin]
MDA-MB-231 cells
  IC50: 12 µM
S. aureus
  MIC: 0.1 mg/L and 0.19 μM
S. aureus; listed as Hyperforin
  MIC: 50 mg/L (≈ 93.1 µM)
[8]
  MIC: 0.1 mg/L and 0.19 μM
[9]
  IC50: 37 µM
K-562 cells
  IC50: 21 µM
Leukemia U937 cells
  IC50: 1.8 µM
MRSA; MRSA
  MIC: 1 µg/mL (≈ 1.86 µM)
Sarcina lutea
  MIC: 0.1 mg/L and 0.19 μM
E. faecalis
  MIC: 1 µg/mL (≈ 1.86 µM)
[10]
  MIC: 400 µg/mL (≈ 745 µM)

## CC[C@H](C)C(=O)c1c(O)cc(O)cc1OC/C=C(\C)CCC=C(C)C [Compound 2, olympicin A]
[11]
  inhibition of efflux from NorA multidrug efflux pumps: inhibited the efflux
[1]
  IC50: 11.3 µM
Bcl-2
  degradation of the antiapoptotic protein Bcl-2 (in words): degradation
MDA-MB-231 [2]
  GI50: 1.07 µM
  TGI: 2.54 µM
K-562 [3]
  GI50: 20.3 µM
  TGI: 23.49 µM
HL-60 [4]
  TGI: 81.63 µM
  GI50: 72.6 µM
MDA-MB-231 [5]
  IC50: 2.95 ± 0.4 µM
K-562 [6]
  IC50: 22.9 ± 4 µM
HL-60 [7]
  IC50: 13.8 ± 1.8 µM
HL-60/DOX
  IC50: 1.96 ± 0.2 µM
EJ
  IC50: 5.61 ± 0.5 µM
EA.hy926
  IC50: 34 ± 6.5 µM
HEK-293
  IC50: 22.5 ± 3.8 µM
MRSA; growth of MRSA
  IC50: 1.80 µg/mL (≈ 5.2 µM)

## hyperatomarin
MDA-MB-231 cells
  IC50: 0.86 µM
